Data reported in article PMC6935304 (International Journal of Nanomedicine, 2019).
Read-outs that look alike come from different tables or passages of the source.

Columns and labels:
[1] = tested on: plasma proteins; conditions: dog; cited from earlier work
[2] = tested on: plasma proteins; conditions: rat; cited from earlier work
[3] = In vitro drug release by dialysis against PBS, HPLC; type: physicochemical; conditions: room temperature
[4] = tested on: plasma proteins; conditions: human; cited from earlier work
[5] = tested on: CSE; assay: Immunoblot of CSE expression in hearts of heart failure rats; type: in vivo; conditions: rat heart, 6 weeks after myocardial infarction

S-propargyl-cysteine [ZYZ-802]
Binding rate to plasma proteins [1]: very low
Binding rate to plasma proteins [2]: very low
Time to release from the dialysis tubing [3]: ≤ 30 min
Binding rate to plasma proteins [4]: very low
CSE expression relative to HF group or DP-LP group [5]: 1.6 times
